According to the supplement of paper PMC12420376:

Columns and labels:
[1] = system: OVCAR8; experiment: drug sensitivity score (DSS2) on cancer cell count; higher = more sensitive; extreme values may be limits of the assay; details: 72 h
In short: (§1)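 Ovarian cancer cells were cultured either alone or directly mixed 1:1 with lung or skin fibroblasts and plated onto 384-well plates acoustically pre-spotted with 528 approved and investigational compounds at 5 concentrations for 72 h of treatment. After fixation, cells were immunostained for CK8/18 with Hoechst and imaged at 10× across 4 fields to count cancer cells. Responses were fitted with 4-parameter logistic curves, and from these fits a drug sensitivity score was derived in Breeze, with screen quality assessed by Z'.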

[2] = system: KURAMOCHI; experiment: as above; details: 72 h
In short: as §1

[3] = co-cultured fibroblast: BJHTERT
[4] = co-cultured fibroblast: none (monoculture)

Compound	drug sensitivity score [1, 3]	drug sensitivity score ([1]; co-cultured fibroblast: WI38)	drug sensitivity score [1, 4]	drug sensitivity score [2, 3]	drug sensitivity score ([2]; co-cultured fibroblast: WI38)	drug sensitivity score [2, 4]
C=CCN(/C=C1/C(=O)O[C@H](COC)[C@@]2(C)C1=C(O)C(=O)C1=C2[C@H](OC(C)=O)C[C@]2(C)C(=O)CC[C@@H]12)CC=C [Sonolisib]	0 DSS	0 DSS	0 DSS	0 DSS	1.5 DSS	0 DSS
CNC(=O)c1cc(Oc2ccc(NC(=O)Nc3ccc(Cl)c(C(F)(F)F)c3)cc2)ccn1 [Sorafenib]	0 DSS	0 DSS	0 DSS	0 DSS	0 DSS	0 DSS
CN1CCN(c2nc(C3=C(c4c[nH]c5ccccc45)C(=O)NC3=O)c3ccccc3n2)CC1 [Sotrastaurin]	0.2 DSS	2.6 DSS	0 DSS	1.1 DSS	0.6 DSS	12 DSS
C=CC(=O)Nc1cccc(Nc2nc(Nc3ccc(OCCOC)cc3)ncc2F)c1 [Spebrutinib]	0 DSS	0 DSS	0 DSS	0 DSS	0 DSS	0 DSS
CC(C)n1cnc2c(NCCc3ccc(O)cc3)nc(-c3csc4ccccc34)nc21 [StemRegenin 1]	2.8 DSS	0 DSS	1 DSS	4.3 DSS	2.8 DSS	1.7 DSS
CCN(CC)CCNC(=O)c1c(C)[nH]c(/C=C2\C(=O)Nc3ccc(F)cc32)c1C [Sunitinib]	0.7 DSS	0 DSS	0 DSS	0 DSS	0 DSS	3.2 DSS
CC(C)(O)CC(=O)NCCn1ccc2ncnc(Nc3ccc(Oc4cccc(C(F)(F)F)c4)c(Cl)c3)c21 [TAK-285]	0.2 DSS	0 DSS	1.2 DSS	5.2 DSS	1.6 DSS	0.6 DSS
CCS(=O)(=O)c1cccc(-c2cc(C(=O)NC3CCN(C)CC3)c(C)c3[nH]c4ncc(C)cc4c23)c1 [TAK-901]	9.4 DSS	8.3 DSS	7.1 DSS	11.8 DSS	15 DSS	13.7 DSS
Cc1cccc(-c2[nH]c(CNc3ccccc3F)nc2-c2ccc3ncnn3c2)n1 [TEW-7197]	11.2 DSS	16.2 DSS	4.2 DSS	0 DSS	0 DSS	0 DSS
CC(C)Oc1ccc(-c2nn([C@@H](C)c3oc4ccc(F)cc4c(=O)c3-c3cccc(F)c3)c3ncnc(N)c23)cc1F [TGR-1202]	0 DSS	0 DSS	0 DSS	0 DSS	0 DSS	0 DSS
Cc1cc(C(C)Nc2ccccc2)c2nc(N3CCOCC3)cc(=O)n2c1 (stereo unspecified) [TGX-221]	8.5 DSS	7.2 DSS	0 DSS	7.7 DSS	0 DSS	4 DSS
Nc1nc(NC2CC2)cc(-c2cccc(Cl)c2Cl)n1 [TH588]	7.4 DSS	4.5 DSS	3.3 DSS	6 DSS	6.7 DSS	6.5 DSS
Clc1ccccc1C(c1ccccc1)(c1ccccc1)n1cccn1 [TRAM-34]	0 DSS	0 DSS	0 DSS	0 DSS	0 DSS	0 DSS
CC(=O)Nc1ccc(C(=O)Nc2ccccc2N)cc1 [Tacedinaline]	0 DSS	0 DSS	1.8 DSS	0 DSS	2.6 DSS	3.7 DSS
C=CC[C@@H]1/C=C(\C)C[C@H](C)C[C@H](OC)[C@H]2O[C@@](O)(C(=O)C(=O)N3CCCC[C@H]3C(=O)O[C@H](/C(C)=C/[C@@H]3CC[C@@H](O)[C@H](OC)C3)[C@H](C)[C@@H](O)CC1=O)[C@H](C)C[C@@H]2OC [Tacrolimus]	0.8 DSS	0 DSS	3.1 DSS	1 DSS	1 DSS	18.5 DSS
CN(C(=O)c1ccc(F)cc1C(F)(F)F)C1CCN(c2nnc(-c3ccnn3C)c3ccccc23)CC1 [Taladegib]	0 DSS	0 DSS	0 DSS	0 DSS	0 DSS	0 DSS
Cn1ncnc1[C@H]1c2n[nH]c(=O)c3cc(F)cc(c23)N[C@@H]1c1ccc(F)cc1 [Talazoparib]	19.5 DSS	15.3 DSS	15.8 DSS	10.5 DSS	15 DSS	16.3 DSS
C[C@@H]1CN(Cc2ccc(F)cc2)[C@@H](C)CN1C(=O)c1cc2c(C(=O)C(=O)N(C)C)cn(C)c2cc1Cl [Talmapimod]	2.8 DSS	0 DSS	1.4 DSS	1.2 DSS	0 DSS	0 DSS
COc1cc(Nc2ncc(F)c(Nc3ccc4c(n3)NC(=O)C(C)(C)O4)n2)cc(OC)c1OC [Tamatinib]	0 DSS	4.3 DSS	0.9 DSS	0.6 DSS	3.7 DSS	6 DSS
CC/C(=C(\c1ccccc1)c1ccc(OCCN(C)C)cc1)c1ccccc1 [Tamoxifen]	3.3 DSS	0 DSS	1 DSS	1.3 DSS	1.3 DSS	0 DSS
COc1cc2c(N3CCN(C(=O)Nc4ccc(OC(C)C)cc4)CC3)ncnc2cc1OCCCN1CCCCC1 [Tandutinib]	0 DSS	0 DSS	0 DSS	0 DSS	0 DSS	0 DSS
O[C@H]1CC[C@H](Nc2ncc3nc(Nc4c(F)cc(F)cc4F)n([C@H]4CCOC4)c3n2)CC1 [Tanzisertib]	1.4 DSS	0 DSS	1 DSS	2 DSS	0 DSS	0.2 DSS
C[C@@H](C(=O)O)c1ccc(-c2ccccc2)c(F)c1 [Tarenflurbil]	0.7 DSS	0 DSS	0 DSS	0 DSS	0 DSS	0 DSS
Cc1nc(-c2cn3c(n2)-c2ccc(-c4cnn(C(C)(C)C(N)=O)c4)cc2OCC3)n(C(C)C)n1 [Taselisib]	3.1 DSS	0 DSS	3.3 DSS	9.2 DSS	4.7 DSS	10.7 DSS
COc1cccc2c1c(O)c(C(=O)N(C)c1ccc(C(F)(F)F)cc1)c(=O)n2C [Tasquinimod]	0 DSS	0 DSS	0 DSS	0 DSS	0 DSS	0 DSS
CCN(c1cc(-c2ccc(CN3CCOCC3)cc2)cc(C(=O)NCc2c(C)cc(C)[nH]c2=O)c1C)C1CCOCC1 [Tazemetostat]	0 DSS	0 DSS	0 DSS	0 DSS	0 DSS	0 DSS

Compound	drug sensitivity score [1, 3]	drug sensitivity score ([1]; co-cultured fibroblast: WI38)	drug sensitivity score [1, 4]	drug sensitivity score [2, 3]	drug sensitivity score ([2]; co-cultured fibroblast: WI38)	drug sensitivity score [2, 4]
CNC(=O)c1cc(COc2nnc(Nc3ccc(Cl)cc3)c3ccoc23)ccn1 [Telatinib]	1.1 DSS	0 DSS	0 DSS	0 DSS	0.4 DSS	16.6 DSS
Cn1nnc2c(C(N)=O)ncn2c1=O [Temozolomide]	0 DSS	0 DSS	9.8 DSS	0 DSS	2.2 DSS	9.1 DSS
CO[C@H]1C[C@@H]2CC[C@@H](C)[C@@](O)(O2)C(=O)C(=O)N2CCCC[C@H]2C(=O)O[C@H]([C@H](C)C[C@@H]2CC[C@@H](OC(=O)C(C)(CO)CO)[C@H](OC)C2)CC(=O)[C@H](C)/C=C(\C)[C@@H](O)[C@@H](OC)C(=O)[C@H](C)C[C@H](C)/C=C/C=C/C=C/1C [Temsirolimus]	8.8 DSS	0 DSS	11 DSS	16.8 DSS	14.2 DSS	8.6 DSS
COc1cc([C@@H]2c3cc4c(cc3[C@@H](O[C@@H]3O[C@@H]5CO[C@@H](c6cccs6)O[C@H]5[C@H](O)[C@H]3O)[C@H]3COC(=O)[C@H]23)OCO4)cc(OC)c1O [Teniposide]	0 DSS	0 DSS	0.4 DSS	0 DSS	0 DSS	0 DSS
CN1CCC(COc2cnc(-c3cccc(Cn4nc(-c5cccc(C#N)c5)ccc4=O)c3)nc2)CC1 [Tepotinib]	0 DSS	0 DSS	1.8 DSS	0.2 DSS	0 DSS	3 DSS
COc1cc2c(Nc3ccc(Cl)c(Cl)c3F)ncnc2cc1OC[C@@H]1C[C@@H]2CN(C)C[C@@H]2C1 [Tesevatinib]	3.3 DSS	0.4 DSS	3.4 DSS	5 DSS	1.4 DSS	11.7 DSS
O=C1CCC(N2C(=O)c3ccccc3C2=O)C(=O)N1 (stereo unspecified) [Thalidomide]	0 DSS	0 DSS	0 DSS	0 DSS	0 DSS	0 DSS
Nc1nc2[nH]cnc2c(=S)[nH]1 [Thioguanine]	4.8 DSS	7.3 DSS	13.6 DSS	5.3 DSS	5.7 DSS	7.7 DSS
O=c1sn(-c2cccc3ccccc23)c(=O)n1Cc1ccccc1 [Tideglusib]	0.4 DSS	1.5 DSS	0 DSS	0 DSS	0 DSS	0 DSS
Cn1cncc1[C@@](N)(c1ccc(Cl)cc1)c1ccc2c(c1)c(-c1cccc(Cl)c1)cc(=O)n2C [Tipifarnib]	5.5 DSS	2.5 DSS	12.5 DSS	14.9 DSS	18.3 DSS	12.9 DSS
CC#CC(=O)N1CC[C@@H](n2c(=O)n(-c3ccc(Oc4ccccc4)cc3)c3c(N)ncnc32)C1 [Tirabrutinib]	0 DSS	0 DSS	0 DSS	1.4 DSS	0 DSS	0 DSS
O=C1NC(=O)[C@@H](c2cn3c4c(cccc24)CCC3)[C@@H]1c1c[nH]c2ccccc12 [Tivantinib]	4 DSS	6.4 DSS	3.8 DSS	5.4 DSS	5.9 DSS	14 DSS
COc1cc2nccc(Oc3ccc(NC(=O)Nc4cc(C)on4)c(Cl)c3)c2cc1OC [Tivozanib]	2.8 DSS	8.9 DSS	4.9 DSS	5.7 DSS	3.8 DSS	0.4 DSS
C[C@@H]1CCN(C(=O)CC#N)C[C@@H]1N(C)c1ncnc2[nH]ccc12 [Tofacitinib]	0 DSS	0 DSS	0 DSS	0 DSS	0 DSS	12.2 DSS
CC[C@@]1(O)C(=O)OCc2c1cc1n(c2=O)Cc2cc3c(CN(C)C)c(O)ccc3nc2-1 [Topotecan]	22.2 DSS	23.1 DSS	30.4 DSS	20.9 DSS	25.7 DSS	28 DSS
CN(C)CCOc1ccc(/C(=C(/CCCl)c2ccccc2)c2ccccc2)cc1 [Toremifene]	3.2 DSS	0 DSS	3.5 DSS	2.1 DSS	0.8 DSS	2.3 DSS
CC(C)C[C@@H](C(=O)N[C@H](C(=O)OC1CCCC1)c1ccccc1)[C@H](O)C(=O)NO [Tosedostat]	14.5 DSS	11.4 DSS	6.5 DSS	2 DSS	1.3 DSS	2.1 DSS
Cc1cc(Nc2cc(N3CCN(C)CC3)nc(Sc3ccc(NC(=O)C4CC4)cc3)n2)n[nH]1 [Tozasertib]	20.1 DSS	19.5 DSS	20.9 DSS	22 DSS	19.4 DSS	23.7 DSS
CC(=O)Nc1cccc(-n2c(=O)n(C3CC3)c(=O)c3c(Nc4ccc(I)cc4F)n(C)c(=O)c(C)c32)c1 [Trametinib]	10.7 DSS	3.9 DSS	13.5 DSS	9 DSS	7.4 DSS	7.6 DSS
CC1=C(/C=C/C(C)=C/C=C/C(C)=C/C(=O)O)C(C)(C)CCC1 [Tretinoin]	0 DSS	0 DSS	0 DSS	0 DSS	0 DSS	8.2 DSS
NC(=S)N/N=C/c1ncccc1N [Triapine]	5.2 DSS	9.3 DSS	8.7 DSS	4.5 DSS	6.3 DSS	8.2 DSS
O=c1[nH]c(=O)n([C@H]2C[C@H](O)[C@@H](CO)O2)cc1C(F)(F)F [Trifluridine]	5.2 DSS	2.7 DSS	9 DSS	5.4 DSS	9.2 DSS	7.4 DSS
O=C(CCCCCCC(=O)Nc1ccc([C@H]2O[C@@H](CSc3nc(-c4ccccc4)c(-c4ccccc4)o3)C[C@@H](c3ccc(CO)cc3)O2)cc1)NO [Tubacin]	5 DSS	1.5 DSS	6.2 DSS	1.1 DSS	6.7 DSS	7 DSS
CN1CCc2c(c3ccccc3n2Cc2ccc(C(=O)NO)cc2)C1 [Tubastatin A]	0 DSS	4.3 DSS	5.2 DSS	0 DSS	3.3 DSS	4.6 DSS
Cc1cc(Nc2ncnc3ccc(NC4=NC(C)(C)CO4)cc23)ccc1Oc1ccn2ncnc2c1 [Tucatinib]	0 DSS	0 DSS	0 DSS	2.9 DSS	0 DSS	2.5 DSS
